Counter-ions that a name gives are not always drawn.
Key:
[1] = molecular target: T1, FGFR3 (Homo sapiens, UniProt P22607); assay: In vitro enzymology inhibitory activity (Caliper mobility shift kinase assay); format: biochemical; conditions: reaction 1 hour at 28° C., FAM-labelled peptide and ATP
T1 construct: purchased Carna
Protocol: (§1) • (1) Preparation of agents and compounds • (1) 1-fold kinase buffer without MnCl2 (50 mM HEPES, pH=7.5, 0.0015% Brij-35, 10 mM MgCl2, 2 mM DTT) • (2) 1-fold kinase buffer with MnCl2 (50 mM HEPES, pH=7.5, 0.0015% Brij-35, 10 mM MgCl2, 10 mM MnCl2, 2 mM DTT); • (3) Termination solution (100 mM HEPES, pH=7.5, 0.015% Brij-35, 0.2% Coating Reagent #3, 50 mM EDTA); • (4) 2.5-fold kinase solution (the VEGFR2, FGFR1, FGFR3, PDGFRβ kinases were added to the 1-fold kinase buffer respectively to prepare the corresponding 2.5-fold kinase solutions); • (5) 2.5-fold substrate solution: FAM-labelled peptide and ATP were added to the 1-fold kinase buffer to prepare a peptide solution; • (6) 4-fold dilution of the compound solution: the compound was accurately weighed, and dissolved in DMSO. The mixture was mixed sufficiently and evenly to prepare a 10 mM solution. Then the solution was diluted with DMSO to 500 μM, and 4-fold serial dilutions were done at 10 concentrations with a highest concentration of 50μM.
(§2) The calculated inhibition ratio (%)=(max. conversion−sample conversion)/(max. conversion−min. conversion)×100
(§3) The curve fitting was done with the software Xlfit to obtain the IC50 value.

[2] = molecular target: T2, PDGFRβ (Homo sapiens, UniProt P09619); assay: as above; format: biochemical; conditions: reaction 5 hour at 28° C., FAM-labelled peptide and ATP
T2 construct: purchased BPS
Protocol: as §1, §2, §3

[3] = molecular target: T3, VEGFR2 (Homo sapiens, UniProt P35968); assay: as above; format: biochemical; conditions: reaction 1 hour at 28° C., FAM-labelled peptide and ATP
T3 construct: purchased Carna
Protocol: as §1, §2, §3

[4] = test system: HUVEC cells; assay: In vitro cellular inhibitory activity, h-VEGF-A stimulated HUVEC proliferation; format: cell-based; conditions: Homo sapiens, h-VEGF-A 10 ng/ml, incubated for 89 hours, absorbance at 490 nm, read-out: ED50 for the HUVEC in vitro cells
Protocol: (§4) (1) Thawing cells and Passing cells.
(§5) The 3T3 cells were resuspended in a culture medium containing 10% fetal bovine serum, wherein the cell concentration was 5×10^4/ml. The cell suspension was added to a 96-well plate with 100 μL per well, and incubated overnight; the HUVEC cells were resuspended in a culture medium containing 10% heat-inactivated fetal bovine serum, wherein the cell concentration was 7.5×10^4/ml. The cell suspension was added to a 96-well plate with 100 μL per well. • (3) Treating with drugs: the compounds were diluted to different concentrations, and 60 μLh-PDGF-BB (3T3 cells) and 40 ng/ml h-VEGF-A (HUVEC cells) were added and incubated for 1 hour. • (4) 100 μL of a solution containing the compound and h-PDGF-BB (h-VEGF-A, for the HUVEC cells) was added to a cell culture plate, wherein the final concentration of h-PDGF-BB was 10 ng/ml, the final concentration of h-VEGF-A was 10 ng/ml, and the final concentration for the compounds were 10, 3.3333, 1.1111, 0.3704, 0.1235, 0.0412, 0.0137, 0.0046, and 0.0015 μM. The plate was incubated for 40 hours, and the HUVEC cells were incubated for 89 hours. To each well was added 20 μL Promega Substrate, and the plate was incubated at 37° C. for 7.5 hours, and the HUVEC cells were incubated for 11.5 hours. Then the plate was placed in a microplate reader to read the absorbance at 490 nm. • (5) Data processing
(§6) The curve of the compound concentration vs. Net OD was plotted, wherein Net OD=Compound OD−min. OD. ED50 was calculated according to the following equation: Conc. ED50(x)=(y−b)/a, y=Calculated Net OD for IC50, a=slope, b=intercept.

[5] = molecular target: T4, FGFR1 (Homo sapiens, UniProt P11362); assay: In vitro enzymology inhibitory activity (Caliper mobility shift kinase assay); format: biochemical; conditions: reaction 1 hour at 28° C., FAM-labelled peptide and ATP
T4 construct: purchased Carna
Protocol: as §1, §2, §3

[6] = test system: 3T3 cells; assay: In vitro cellular inhibitory activity, h-PDGF-BB stimulated 3T3 proliferation; format: cell-based; conditions: Mus musculus, NIH3T3; h-PDGF-BB 10 ng/ml, incubated for 40 hours, absorbance at 490 nm; read-out: ED50 for the 3T3 in vitro cells
Protocol: as §4, §5, §6

T3 sequence (P35968 20-1356): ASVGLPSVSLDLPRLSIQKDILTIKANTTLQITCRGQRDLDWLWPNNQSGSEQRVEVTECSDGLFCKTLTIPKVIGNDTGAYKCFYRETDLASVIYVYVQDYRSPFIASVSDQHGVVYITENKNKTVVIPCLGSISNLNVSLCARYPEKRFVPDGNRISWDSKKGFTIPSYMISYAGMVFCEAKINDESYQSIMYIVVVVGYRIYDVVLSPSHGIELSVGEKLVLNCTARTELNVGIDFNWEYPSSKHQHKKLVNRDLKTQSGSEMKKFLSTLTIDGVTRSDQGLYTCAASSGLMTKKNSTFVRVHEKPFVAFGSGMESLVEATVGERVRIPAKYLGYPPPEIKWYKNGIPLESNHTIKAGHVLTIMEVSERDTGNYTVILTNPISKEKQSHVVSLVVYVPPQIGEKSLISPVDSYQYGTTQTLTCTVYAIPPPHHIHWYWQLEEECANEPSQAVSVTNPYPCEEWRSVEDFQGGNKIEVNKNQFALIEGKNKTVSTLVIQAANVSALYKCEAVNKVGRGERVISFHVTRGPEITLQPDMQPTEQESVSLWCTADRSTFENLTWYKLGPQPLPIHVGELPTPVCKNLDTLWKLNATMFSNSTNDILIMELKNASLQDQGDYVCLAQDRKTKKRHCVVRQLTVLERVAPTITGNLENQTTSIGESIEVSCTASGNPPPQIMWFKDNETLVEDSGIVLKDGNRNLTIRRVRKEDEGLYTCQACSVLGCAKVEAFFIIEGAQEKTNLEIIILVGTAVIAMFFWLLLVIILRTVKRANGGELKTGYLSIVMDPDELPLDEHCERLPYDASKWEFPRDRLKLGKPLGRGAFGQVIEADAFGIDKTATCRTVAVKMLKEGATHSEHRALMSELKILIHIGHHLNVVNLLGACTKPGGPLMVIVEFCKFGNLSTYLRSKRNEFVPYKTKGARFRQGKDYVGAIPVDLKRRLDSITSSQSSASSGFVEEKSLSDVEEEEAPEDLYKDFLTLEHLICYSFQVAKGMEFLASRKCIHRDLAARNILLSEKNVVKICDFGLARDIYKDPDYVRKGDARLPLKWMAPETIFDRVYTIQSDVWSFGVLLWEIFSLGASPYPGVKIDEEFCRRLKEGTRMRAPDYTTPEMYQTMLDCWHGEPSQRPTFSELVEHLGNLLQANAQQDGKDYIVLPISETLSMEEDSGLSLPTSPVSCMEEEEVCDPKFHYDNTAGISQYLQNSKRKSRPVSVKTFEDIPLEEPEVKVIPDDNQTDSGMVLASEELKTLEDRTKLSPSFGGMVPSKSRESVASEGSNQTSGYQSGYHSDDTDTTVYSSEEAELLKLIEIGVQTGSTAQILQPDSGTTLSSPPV
T1 sequence (P22607 23-806): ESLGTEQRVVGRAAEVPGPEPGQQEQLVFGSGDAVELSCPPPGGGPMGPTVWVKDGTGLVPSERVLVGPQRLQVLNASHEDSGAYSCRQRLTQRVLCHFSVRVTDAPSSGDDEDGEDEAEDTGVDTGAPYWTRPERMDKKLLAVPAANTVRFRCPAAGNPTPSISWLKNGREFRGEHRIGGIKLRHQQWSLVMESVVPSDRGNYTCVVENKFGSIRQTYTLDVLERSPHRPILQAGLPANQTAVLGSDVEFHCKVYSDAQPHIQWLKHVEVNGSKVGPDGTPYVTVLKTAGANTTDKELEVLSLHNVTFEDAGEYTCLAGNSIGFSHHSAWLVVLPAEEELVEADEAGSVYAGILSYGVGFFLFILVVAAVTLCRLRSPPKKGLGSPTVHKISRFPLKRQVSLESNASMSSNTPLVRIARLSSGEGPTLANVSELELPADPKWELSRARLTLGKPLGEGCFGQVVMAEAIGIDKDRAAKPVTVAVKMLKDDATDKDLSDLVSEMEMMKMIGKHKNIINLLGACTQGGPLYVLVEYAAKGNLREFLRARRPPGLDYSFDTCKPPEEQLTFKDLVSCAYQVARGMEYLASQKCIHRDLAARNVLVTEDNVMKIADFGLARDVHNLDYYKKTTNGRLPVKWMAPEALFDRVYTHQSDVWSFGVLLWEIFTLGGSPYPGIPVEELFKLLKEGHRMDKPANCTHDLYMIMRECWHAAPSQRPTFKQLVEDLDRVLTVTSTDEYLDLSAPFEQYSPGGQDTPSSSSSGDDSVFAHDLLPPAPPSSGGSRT
T2 sequence (P09619 33-1106): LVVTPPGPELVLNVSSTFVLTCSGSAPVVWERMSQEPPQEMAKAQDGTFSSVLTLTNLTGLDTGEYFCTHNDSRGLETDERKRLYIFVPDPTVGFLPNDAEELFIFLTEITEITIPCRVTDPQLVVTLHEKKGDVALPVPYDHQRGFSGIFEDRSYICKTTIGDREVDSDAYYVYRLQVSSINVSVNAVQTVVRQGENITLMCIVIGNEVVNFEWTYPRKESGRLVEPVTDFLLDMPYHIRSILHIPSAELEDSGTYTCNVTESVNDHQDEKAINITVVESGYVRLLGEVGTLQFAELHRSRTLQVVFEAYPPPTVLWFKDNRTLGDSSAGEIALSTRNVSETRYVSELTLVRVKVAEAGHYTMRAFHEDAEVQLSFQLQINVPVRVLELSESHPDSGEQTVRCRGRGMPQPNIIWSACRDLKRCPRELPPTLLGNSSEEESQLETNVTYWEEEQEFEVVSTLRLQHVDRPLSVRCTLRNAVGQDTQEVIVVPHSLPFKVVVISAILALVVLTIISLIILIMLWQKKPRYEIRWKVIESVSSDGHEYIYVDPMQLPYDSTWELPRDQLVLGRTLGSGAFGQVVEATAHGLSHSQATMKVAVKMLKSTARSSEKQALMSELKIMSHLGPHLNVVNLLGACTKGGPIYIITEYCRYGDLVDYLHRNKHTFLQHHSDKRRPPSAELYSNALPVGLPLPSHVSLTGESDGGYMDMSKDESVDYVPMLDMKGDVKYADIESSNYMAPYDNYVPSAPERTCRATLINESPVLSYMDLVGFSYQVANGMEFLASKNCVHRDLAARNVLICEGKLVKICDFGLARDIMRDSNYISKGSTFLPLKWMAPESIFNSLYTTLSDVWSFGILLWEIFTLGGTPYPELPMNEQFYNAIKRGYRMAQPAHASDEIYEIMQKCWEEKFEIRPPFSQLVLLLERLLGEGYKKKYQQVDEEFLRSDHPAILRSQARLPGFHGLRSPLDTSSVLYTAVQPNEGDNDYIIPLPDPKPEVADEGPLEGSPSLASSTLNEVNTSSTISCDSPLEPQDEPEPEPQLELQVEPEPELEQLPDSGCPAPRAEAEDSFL
T4 sequence (P11362 22-822): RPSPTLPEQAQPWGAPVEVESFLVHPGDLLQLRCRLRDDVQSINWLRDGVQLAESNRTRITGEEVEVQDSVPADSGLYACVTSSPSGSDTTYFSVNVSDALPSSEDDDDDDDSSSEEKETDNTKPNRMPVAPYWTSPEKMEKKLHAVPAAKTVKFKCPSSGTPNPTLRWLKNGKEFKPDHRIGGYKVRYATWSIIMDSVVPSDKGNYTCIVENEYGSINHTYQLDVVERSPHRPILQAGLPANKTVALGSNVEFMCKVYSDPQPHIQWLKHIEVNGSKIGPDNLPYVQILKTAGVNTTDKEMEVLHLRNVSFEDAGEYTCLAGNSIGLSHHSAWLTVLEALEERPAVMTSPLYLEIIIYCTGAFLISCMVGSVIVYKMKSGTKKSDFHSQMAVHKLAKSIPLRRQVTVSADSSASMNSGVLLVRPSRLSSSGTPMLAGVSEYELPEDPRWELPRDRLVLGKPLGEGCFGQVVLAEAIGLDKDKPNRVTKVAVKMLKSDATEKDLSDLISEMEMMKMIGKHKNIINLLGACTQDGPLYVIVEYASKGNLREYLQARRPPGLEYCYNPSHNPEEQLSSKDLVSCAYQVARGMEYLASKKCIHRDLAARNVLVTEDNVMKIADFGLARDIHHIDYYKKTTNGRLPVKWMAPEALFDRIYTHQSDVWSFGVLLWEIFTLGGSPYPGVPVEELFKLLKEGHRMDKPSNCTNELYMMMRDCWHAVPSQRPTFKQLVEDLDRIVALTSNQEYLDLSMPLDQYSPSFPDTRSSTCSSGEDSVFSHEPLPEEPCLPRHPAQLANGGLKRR

Row | Structure (SMILES) | IC50 [1] | IC50 [2] | IC50 [3] | EC50 [4] | IC50 [5] | EC50 [6]
1 | COC(=O)c1ccc2c(c1)NC(=O)/C2=C(\Nc1ccc2c(c1)CCN2C(=O)CN1CCOCC1)c1ccc(F)cc1 [Compound 9 hydrochloride, methyl(Z)-3-((4-fluorophenyl)(1-(2-morpholinylacetyl)indolin-5-ylamino)methylene)-2-oxoindoline-6-carboxylate] | 9800 nM | 85 nM | 770 nM | 130 to 190 nM | – | –
2 | COC(=O)c1ccc2c(c1)NC(=O)/C2=C(\Nc1ccc2c(c1)CCN2C(=O)CN1CCN(C)CC1)c1ccccc1 [Compound 1] | 230 nM | 7.6 nM | 17 nM | 56 to 84 nM | 100 nM | 60 to 80 nM
3 | CCOC(=O)c1ccc2c(c1)NC(=O)/C2=C(\Nc1ccc2c(c1)CCN2C(=O)CN1CCOCC1)c1ccccc1 [Compound 10 hydrochloride, ethyl(Z)-3-((1-(2-morpholinylacetyl)indolin-5-ylamino)(phenyl)methylene)-2-oxoindoline-6-carboxylate] | 5300 nM | 65 nM | 630 nM | 90 to 140 nM | 7960 nM | –
